Measured values taken from publication PMC8158844 (ACS Omega, 2021).
Marks after values point to notes of the source that are not given here.

Tests used:
[1] = Metabolic stability in porcine liver S9 fraction; assay type: in vitro ADME; conditions: 30 min; for stability in the absence of BNNP (percent of parent remaining) / stability in the presence of BNNP (percent of parent remaining): porcine liver homogenate; for stability in the presence of BNNP (percent of parent remaining): carboxylesterase 1 inhibitor BNPP 1 mM; for stability porcine liver S9 fractions (percent of parent remaining): 37 °C, no NADPH added
[2] = Chemical stability in aqueous solution; assay type: physicochemical; conditions: for stability in PBS buffer (percent of parent remaining): PBS buffer pH 7.4 with 0.2% Triton X-100, 60 min, 37 °C
[3] = Metabolic stability in rat liver S9 fraction; assay type: in vitro ADME; conditions: 30 min incubation in the presence of NADPH
[4] = Metabolic stability in porcine blood plasma; assay type: in vitro ADME; conditions: for metabolic stability porcine plasma (percent of parent remaining): Table 1, 30 min incubation, n = 3; for stability porcine blood plasma (percent of parent remaining): Table 3, 30 min, 37 °C, n = 3 unless otherwise stated
[5] = biological target: porcine albumin (Sus scrofa, UniProt P08835); assay: Stability in porcine albumin solution; assay type: in vitro ADME; conditions: porcine albumin 17.5 mg/mL in PBS; 30 min, 37 °C
Chain of porcine albumin (P08835 25-607): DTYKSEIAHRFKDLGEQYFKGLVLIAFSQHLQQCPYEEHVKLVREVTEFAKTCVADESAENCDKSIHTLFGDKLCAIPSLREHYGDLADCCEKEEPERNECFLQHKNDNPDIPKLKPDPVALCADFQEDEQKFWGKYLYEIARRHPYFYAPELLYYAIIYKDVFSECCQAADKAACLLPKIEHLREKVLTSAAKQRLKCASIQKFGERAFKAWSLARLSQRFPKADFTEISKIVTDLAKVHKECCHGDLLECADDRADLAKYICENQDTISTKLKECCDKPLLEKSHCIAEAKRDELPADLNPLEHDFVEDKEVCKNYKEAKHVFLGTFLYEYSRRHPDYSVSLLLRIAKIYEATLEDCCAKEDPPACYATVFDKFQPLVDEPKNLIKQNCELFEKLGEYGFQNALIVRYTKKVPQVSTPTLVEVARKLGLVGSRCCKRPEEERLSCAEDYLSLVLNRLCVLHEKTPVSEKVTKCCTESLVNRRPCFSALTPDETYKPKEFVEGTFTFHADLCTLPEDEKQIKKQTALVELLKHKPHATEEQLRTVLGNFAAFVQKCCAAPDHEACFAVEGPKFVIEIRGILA

[6] = biological target: T1, FAAH (Rattus norvegicus, UniProt P97612); assay: Inhibition of fatty acid amide hydrolase; assay type: biochemical
T1 sequence (P97612 1-579): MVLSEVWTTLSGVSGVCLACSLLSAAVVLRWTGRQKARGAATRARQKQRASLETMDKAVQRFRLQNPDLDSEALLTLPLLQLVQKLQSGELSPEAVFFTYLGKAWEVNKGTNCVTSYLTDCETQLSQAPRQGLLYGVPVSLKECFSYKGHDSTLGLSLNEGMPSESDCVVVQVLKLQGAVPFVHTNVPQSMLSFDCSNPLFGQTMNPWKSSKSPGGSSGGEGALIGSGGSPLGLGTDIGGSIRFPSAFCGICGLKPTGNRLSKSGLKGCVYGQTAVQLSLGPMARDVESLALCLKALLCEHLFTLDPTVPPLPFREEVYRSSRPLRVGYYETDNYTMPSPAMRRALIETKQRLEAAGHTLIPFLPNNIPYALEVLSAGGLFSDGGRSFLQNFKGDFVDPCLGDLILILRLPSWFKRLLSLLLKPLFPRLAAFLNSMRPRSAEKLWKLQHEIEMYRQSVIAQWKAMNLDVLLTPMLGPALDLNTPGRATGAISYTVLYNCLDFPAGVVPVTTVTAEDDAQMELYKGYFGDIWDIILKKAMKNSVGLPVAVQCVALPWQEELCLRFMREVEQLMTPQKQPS

[7] = biological target: T2, human recombinant MAGL (Homo sapiens, UniProt Q99685); assay: Inhibition of monoacylglycerol lipase; assay type: biochemical
T2 sequence (Q99685 1-303): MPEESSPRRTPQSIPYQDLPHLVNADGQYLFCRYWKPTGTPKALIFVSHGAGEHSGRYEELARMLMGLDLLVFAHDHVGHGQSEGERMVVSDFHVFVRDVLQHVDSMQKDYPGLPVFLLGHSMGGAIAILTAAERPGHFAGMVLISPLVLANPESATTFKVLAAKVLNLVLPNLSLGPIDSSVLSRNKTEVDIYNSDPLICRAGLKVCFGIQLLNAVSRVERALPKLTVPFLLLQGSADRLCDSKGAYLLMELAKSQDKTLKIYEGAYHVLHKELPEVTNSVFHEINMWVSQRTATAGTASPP

| SMILES | stability in PBS buffer (percent of parent remaining) [2] [%] | stability porcine liver S9 fractions (percent of parent remaining) [1] [%] | stability porcine blood plasma (percent of parent remaining) [4] | stability porcine albumin solution (percent of parent remaining) [5] | IC50 [6] [nM] | IC50 [7] [nM] | further results |
| --- | --- | --- | --- | --- | --- | --- | --- |
| CCOC(=O)C1=C[C@@H](OC(CC)CC)[C@H](NC(C)=O)[C@@H](N)C1 [oseltamivir, reference compound] |  |  |  |  |  |  | stability in the absence of BNNP (percent of parent remaining) [1]: 11 ± 2%; stability in the presence of BNNP (percent of parent remaining) [1]: 97 ± 1% |
| CNC(=O)Oc1ccc2c(c1)[C@]1(C)CCN(C)[C@@H]1N2C [physostigmine, reference compound] | >95 | 57 ± 4 | >95% | >95% |  |  | metabolic stability rat liver S9 fraction (percent of parent remaining) [3]: 76 ± 7%; metabolic stability porcine plasma (percent of parent remaining) [4]: >95% |
| O=C(NCCCCn1ccc2ccc(F)cc21)Oc1ccccc1 [Compound 11] |  |  |  |  | 470 |  | metabolic stability rat liver S9 fraction (percent of parent remaining) [3]: 75 ± 6%; metabolic stability porcine plasma (percent of parent remaining) [4]: 74 ± 2% |
| O=C(NCCCCCCCn1ccc2ccc(F)cc21)Oc1ccccc1 [Compound 21] |  |  |  |  | 84 |  | metabolic stability rat liver S9 fraction (percent of parent remaining) [3]: 74 ± 11%; metabolic stability porcine plasma (percent of parent remaining) [4]: 34 ± 5% |
| O=C(NCCCCCn1ccc2ccc(F)cc21)Oc1ccc(F)cc1 [Compound 26, 4-Fluorophenyl N-[5-(6-Fluoroindol-1-yl)pentyl]carbamate] | >95 | 69 ± 4 | 59 ± 13^n = 6% | 91 ± 6^n = 5% | 49 |  |  |
| N#Cc1cccc(OC(=O)NCCCCCn2ccc3ccc(F)cc32)c1 [Compound 30] | 72 ± 3 | 49 ± 4 | < 5% | <5% | 8 | 380 |  |
| O=C(NCCCCCCn1ccc2ccc(F)cc21)Oc1ccccc1 [Compound 17] |  |  |  |  | 85 |  | metabolic stability rat liver S9 fraction (percent of parent remaining) [3]: 73 ± 2%; metabolic stability porcine plasma (percent of parent remaining) [4]: 55 ± 2% |
| O=C(NCCCCCn1ccc2ccc(F)cc21)Oc1cccnc1 [Compound 44] | 60 ± 2 | 53 ± 7 | <5% | 27 ± 3% | 2 | 170 |  |
| Cc1ccc(OC(=O)NCCCCCn2ccc3ccc(F)cc32)cn1 [Compound 48] | 82 ± 6 | 51 ± 9 | <5% | 62 ± 4% | 4 | 310 |  |
| N#Cc1ccccc1OC(=O)NCCCCCn1ccc2ccc(F)cc21 [Compound 31] | 3 ± 2 |  |  |  |  |  |  |
| N#Cc1ccc(OC(=O)NCCCCCn2ccc3ccc(F)cc32)cc1 [Compound 29, 4-Cyanophenyl N-[5-(6-Fluoroindol-1-yl)pentyl]carbamate] | 12 ± 3 |  |  |  |  |  | cleavage in PBS buffer (pH 7.4) into the amine and 4-hydroxybenzonitrile ([2]; after 30 min at 37 °C, HPLC/MS): nearly totally cleaved |
| Cc1ncccc1OC(=O)NCCCCCn1ccc2ccc(F)cc21 [Compound 45] | 75 ± 4 | 65 ± 9 | 23 ± 6% | 70 ± 8% | 10 | 140 |  |
| O=C(NCCCCCCCCn1ccc2ccc(F)cc21)Oc1ccccc1 [Compound 25, Phenyl N-[8-(6-Fluoroindol-1-yl)octyl]carbamate] |  |  |  |  | 130 |  | metabolic stability rat liver S9 fraction (percent of parent remaining) [3]: 74 ± 5%; metabolic stability porcine plasma (percent of parent remaining) [4]: 65 ± 2% |
| O=C(O)c1ccccc1OC(=O)N1CCC(CCn2ccc3ccc(F)cc32)CC1 [Compound 58] | >95 | 72 ± 6 | >95% | 89 ± 6% | 3500 |  |  |
| O=C(O)c1cccc(OC(=O)N2CCC(CCn3ccc4ccc(F)cc43)CC2)c1 [Compound 56] | >95 | 72 ± 7 | >95% | 94 ± 3% | 27 |  |  |
| O=C(NCCCCCn1ccc2ccc(F)cc21)Oc1cccc2[nH]ccc12 [Compound 49, Indol-4-yl N-[5-(6-Fluoroindol-1-yl)pentyl]carbamate] | >95 | 78 ± 4 | 80 ± 3% | 81 ± 6% | 180 |  | decrease in FAAH inhibitory activity compared with compound 14 ([6]; ratio of FAAH IC50 values): about 6 fold |
| O=C(NCCCCCn1ccc2ccc(F)cc21)Oc1ccccc1C(=O)O [Compound 37, 2-({[5-(6-Fluoroindol-1-yl)pentyl]carbamoyl}oxy)benzoic Acid] | 73 ± 6 | 77 ± 3 | 28 ± 4% | 74 ± 2% | 38 | 38 | factor by which MAGL activity exceeds reference inhibitor ABX-1431 ([7]; ratio of MAGL IC50 values): 15 |
| O=C(NCCCCCn1ccc2ccc(F)cc21)Oc1ccc(C(=O)O)cc1 [Compound 33, 4-({[5-(6-Fluoroindol-1-yl)pentyl]carbamoyl}oxy)benzoic Acid] | >95 | 59 ± 6 | 37 ± 2% | 90 ± 9% | 12 | 3300 | stability in the absence of BNNP (percent of parent remaining) [1]: 59 ± 6%; stability in the presence of BNNP (percent of parent remaining) [1]: 81 ± 8% |
| O=C(NCCCCCn1ccc2ccc(F)cc21)Oc1cccc(C(=O)O)c1 [Compound 35] | >95 | 74 ± 2 | 78 ± 1% | 93 ± 3% | 18 | > 10000 | inhibition at 10 µM ([7]; read-out: MAGL inhibition at 10 μM): 31% |
| O=C(O)c1ccc(OC(=O)N2CCC(CCn3ccc4ccc(F)cc43)CC2)cc1 [Compound 54, 4-({4-[2-(6-Fluoroindol-1-yl)ethyl]piperidine-1-carbonyl}oxy)benzoic Acid] | >95 | 66 ± 9 | 94 ± 3% | 93 ± 8% | 15 |  |  |
